From publication PMC10386950 (Clinical Pharmacokinetics, 2023)

Test system: UDP-glucuronosyltransferases (UGTs)
Test: Metabolic ratio
Format: in vivo, human
Details: Child C patients

## OCc1ncc2n1-c1ccc(Cl)cc1C(c1ccccc1F)=NC2 [1′-Hydroxymidazolam]
  Decrease of the MR for glucuronide formation: approximately 80%
